Assay results as given in the NIST ThermoML archive (doi:10.1016/j.fluid.2005.09.006).
Numbers after ± are expanded uncertainties.

Conditions: Liquid

vapor or sublimation pressure (253.15 K)	vapor or sublimation pressure (263.15 K)	vapor or sublimation pressure (273.15 K)	vapor or sublimation pressure (283.15 K)	vapor or sublimation pressure (293.15 K)	vapor or sublimation pressure (303.15 K)	vapor or sublimation pressure (313.15 K)	vapor or sublimation pressure (323.15 K)	Compound
1964.8 ± 49 kPa	2641.8 ± 66 kPa	3478.5 ± 86 kPa	4497.8 ± 110 kPa	5723.7 ± 140 kPa	7206.2 ± 180 kPa	–	–	O=C=O [carbon dioxide]
244.2 ± 6.2 kPa	344.7 ± 8.7 kPa	473.9 ± 12 kPa	636.3 ± 16 kPa	836.3 ± 21 kPa	1079.6 ± 27 kPa	1369.8 ± 34 kPa	1714.5 ± 43 kPa	CCC [propane]
